Test results reported in ChEMBL document CHEMBL3045874, “2,4-D based herbicidal ionic liquids” (Tetrahedron, 2012).

Key:
[1] = buffer
Centaurea cyanus = assay: Herbicidal activity against Centaurea cyanus assessed as weed control at 450 g/ha; format: functional
Chenopodium album [2] = assay: Herbicidal activity against Chenopodium album assessed as weed control at 450 g/ha; format: functional
[3] = Decomposition temperature of the compound; format: physicochemical
[4] = Decomposition temperature of 5 % of the compound; format: physicochemical
[5] = Glass transition temperature of the compound; format: physicochemical
[6] = Melting point of the compound; format: physicochemical
Capsella bursa-pastoris [7] = assay: Herbicidal activity against Capsella bursa-pastoris assessed as weed control at 0.02 M measured after 30 days of treatment relative to control; format: functional
Capsella bursa-pastoris [8] = assay: Herbicidal activity against Capsella bursa-pastoris assessed as weed control at 0.01 M measured after 30 days of treatment relative to control; format: functional
Capsella bursa-pastoris [9] = assay: Herbicidal activity against Capsella bursa-pastoris assessed as weed control at 0.02 M measured after 6 days of treatment relative to control; format: functional
Capsella bursa-pastoris [10] = assay: Herbicidal activity against Capsella bursa-pastoris assessed as weed control at 0.01 M measured after 6 days of treatment relative to control; format: functional
Thlaspi arvense [11] = assay: Herbicidal activity against Thlaspi arvense assessed as weed control at 0.02 M measured after 30 days of treatment relative to control; format: functional
Thlaspi arvense [12] = assay: Herbicidal activity against Thlaspi arvense assessed as weed control at 0.01 M measured after 30 days of treatment relative to control; format: functional
Thlaspi arvense [13] = assay: Herbicidal activity against Thlaspi arvense assessed as weed control at 0.02 M measured after 6 days of treatment relative to control; format: functional
Thlaspi arvense [14] = assay: Herbicidal activity against Thlaspi arvense assessed as weed control at 0.01 M measured after 6 days of treatment relative to control; format: functional
Chenopodium album [15] = assay: Herbicidal activity against Chenopodium album assessed as weed control at 0.02 M measured after 30 days of treatment relative to control; format: functional
Chenopodium album [16] = assay: Herbicidal activity against Chenopodium album assessed as weed control at 0.01 M measured after 30 days of treatment relative to control; format: functional
Chenopodium album [17] = assay: Herbicidal activity against Chenopodium album assessed as weed control at 0.02 M measured after 6 days of treatment relative to control; format: functional
Chenopodium album [18] = assay: Herbicidal activity against Chenopodium album assessed as weed control at 0.01 M measured after 6 days of treatment relative to control; format: functional
[19] = Cold crystallization temperature of the compound; format: physicochemical

C[n+]1cccc(C(N)=O)c1.O=C([O-])COc1ccc(Cl)cc1Cl
solubility [1]: soluble

CCCC[N+]1(C)CCCC1.O=C([O-])COc1ccc(Cl)cc1Cl
solubility [1]: soluble

CNC.O=C(O)COc1ccc(Cl)cc1Cl [2,4-D-Dimethylammonium]
Activity (Centaurea cyanus): 20% | Activity (Chenopodium album [2]): 60%

C[N+]1(C)CCCCC1.O=C([O-])COc1ccc(Cl)cc1Cl
solubility [1]: soluble

C=CC[N+](C)(C)CC=C.O=C([O-])COc1ccc(Cl)cc1Cl [DIALLYLDIMETHYLAMMONIUM(2,4-DICHLOROPHENOXY)ACETATE]
T [3]: 196 °C | T [4]: 187 °C | T [5]: -42 °C | solubility [1]: soluble

CCCCCOC[N+]1(C)CCCCC1.O=C([O-])COc1ccc(Cl)cc1Cl
solubility [1]: soluble

CCCCCCCCSCn1cc[n+](C)c1.O=C([O-])COc1ccc(Cl)cc1Cl
solubility [1]: soluble

CCCCCCCCCCCCCCCC[N+](C)(C)C.O=C([O-])COc1ccc(Cl)cc1Cl [HEXADECYLTRIMETHYLAMMONIUM(2,4-DICHLOROPHENOXY)ACETATE]
T [3]: 253 °C | T [4]: 218 °C | Tm [6]: -20 °C

CCCC[N+]1(C)CCOCC1.O=C([O-])COc1ccc(Cl)cc1Cl
solubility [1]: soluble

CCCCCCCCCCCCCCCC[n+]1ccccc1.O=C([O-])COc1ccc(Cl)cc1Cl
solubility [1]: soluble

CCCCCCCCCCCC[N+](C)(C)CCOc1ccccc1.O=C([O-])COc1ccc(Cl)cc1Cl [DODECYLDIMETHYLPHENOXYETHYLAMMONIUM(2,4-DICHLOROPHENOXY)ACETATE]
T [3]: 273 °C | T [4]: 214 °C | T [5]: -42 °C

C[N+](C)(CCO)COC1CCCCCCCCCCC1.O=C([O-])COc1ccc(Cl)cc1Cl
T [3]: 280 °C | T [4]: 242 °C | Tm [6]: 108 °C

CCCCCCCCCC[N+](C)(C)CCCCCCCCCC.O=C([O-])COc1ccc(Cl)cc1Cl [DIDECYLDIMETHYLAMMONIUM(2,4-DICHLOROPHENOXY)ACETATE]
Activity (Capsella bursa-pastoris [7]): 100% | Activity (Capsella bursa-pastoris [8]): 100% | Activity (Capsella bursa-pastoris [9]): 99% | Activity (Capsella bursa-pastoris [10]): 81% | Activity (Thlaspi arvense [11]): 100% | Activity (Thlaspi arvense [12]): 100% | Activity (Thlaspi arvense [13]): 96% | Activity (Thlaspi arvense [14]): 82% | Activity (Chenopodium album [15]): 100% | Activity (Chenopodium album [16]): 100% | Activity (Chenopodium album [17]): 98% | Activity (Chenopodium album [18]): 89% | T [19]: -39 °C | T [3]: 260 °C | T [4]: 208 °C | Tm [6]: -3 °C | T [5]: -50 °C

CCCCCCCCCCCCCCCC[N+](C)(C)CCO.O=C([O-])COc1ccc(Cl)cc1Cl [DODECYLDI(POLYOXYETHYLENE)METHYLAMMONIUM(2,4-DICHLOROPHENOXY)ACETATE]
T [3]: 285 °C | T [4]: 219 °C | T [5]: -54 °C

CCCCCCCCOCn1cc[n+](C)c1.O=C([O-])COc1ccc(Cl)cc1Cl
solubility [1]: soluble

CCCOC[N+]1(C)CCCCC1.O=C([O-])COc1ccc(Cl)cc1Cl
solubility [1]: soluble

CCCCCCCCCCSC[N+](C)(C)CCO.O=C([O-])COc1ccc(Cl)cc1Cl
T [3]: 219 °C | T [4]: 205 °C | T [5]: -35 °C | solubility [1]: soluble

O=C([O-])COc1ccc(Cl)cc1Cl.[Na+]
Activity (Capsella bursa-pastoris [7]): 100% | Activity (Capsella bursa-pastoris [8]): 100% | Activity (Capsella bursa-pastoris [9]): 55% | Activity (Capsella bursa-pastoris [10]): 28% | Activity (Thlaspi arvense [11]): 100% | Activity (Thlaspi arvense [12]): 100% | Activity (Thlaspi arvense [13]): 48% | Activity (Thlaspi arvense [14]): 31% | Activity (Chenopodium album [15]): 75% | Activity (Chenopodium album [16]): 25% | Activity (Chenopodium album [17]): 60% | Activity (Chenopodium album [18]): 55%

CCCCCC(CC)OC(=O)COc1ccc(Cl)cc1Cl [2,4-D-Ethylhexyl]
Activity (Centaurea cyanus): 80% | Activity (Chenopodium album [2]): 100%
